Test results from patent US9326988B2, “Treatment and/or prevention of parkinson's disease dementia with ceftriaxone” (CHUNG SHAN MEDICAL UNIVERSITY, priority 2012, dated 2016).

Key:
rats with PDD [1] = assay: Nissl staining of pyramidal neurons in the hippocampal CA1 area of PDD rats; assay type: in vivo, male Wistar rats; conditions: Example 1 treatment group 1: 200 mg/kg daily i.p. for 14 days after MPTP-HCl; determined 15th day (FIG. 6)
Text: In order to investigate whether ceftriaxone is effective in ameliorating neuroinflammation and neurodegeneration of the rats with PDD, on the 15th day after the MPTP-HCl injection, four rats were randomly selected from each of the treatment group 1, the sham-operated group 1, and the pathological control group for histopathological analysis.
The randomly selected rats were sacrificed using CO2, followed by perfusion with 4% paraformaldehyde (in phosphate buffered saline). The brains were rapidly removed and were post-fixed in a 30% sucrose solution containing 4% paraformaldehyde at 4° C. for at least three days. The brains were cut into coronal sections (a thickness of about 30 μm) using a cryostat (Leica CM3050 S, Leica).
In addition, the sections containing the hippocampal CA1 area were selected and were subjected to Nissl staining according to the method well known to and commonly used by one skilled in the art. […] Image Pro Plus Software 6.0 was utilized to estimate the percentage of an area occupied by pyramidal neurons in an area of 2,354 μm^2 according to the semi-quantitative method as described in Xavier L. L. et al. (2005), Brain Research protocols, 16:58-64.
The experimental data are expressed as mean±SEM. […]

rats with PDD [2] = assay: Object recognition test in MPTP-HCl-induced PDD rats; assay type: in vivo, male Wistar rats
Procedure: 1-methyl-4-phenyl-1,2,3,6-tetrahydropyridine hydrochloride (MPTP-HCl) was used to induce PDD in the rats, and the therapeutic effect of ceftriaxone on PDD was evaluated via behavioral tests and histopathological assessment of the brain for the rats. The experiments of this example were conducted substantially according to the method as described in Ho Y. J. et al. (2011), Behav. Brain Res., 219:280-290.
The rats in the pathological control group, the preventive groups, and the treatment groups were anesthetized using Zoletil (Virbac, Carros, France; 20 mg/kg, intraperitoneal injection). Afterward, 0.5 M MPTP-HCl (in saline) was slowly infused bilaterally into the substantia nigra pars compacta (SNc) of the mesencephalon of each rat in the pathological control group, the preventive groups, and the treatment groups (0.21 mg/side) so as to induce the same to develop PDD.
5 days before the MPTP-HCl injection, ceftriaxone (Sigma) was administered to the rats in the preventive groups 1,2 via intraperitoneal injection respectively at a daily dose of 100 mg/kg and at a daily dose of 200 mg/kg until the end of the 14th day after the MPTP-HCl injection. After the MPTP-HCl injection, ceftriaxone was administered to the rats in the treatment group 1 and the sham-operated groups 2,3 via intraperitoneal injection respectively at a daily dose of 200 mg/kg, at a daily dose of 100 mg/kg, and at a daily dose of 200 mg/kg, and saline was administered to the rats in the pathological control group and the sham-operated group 1 via intraperitoneal injection at a daily dose of 1 mL/kg. In addition, starting on the 3rd day after the MPTP-HCl injection, ceftriaxone was administered to the rats in the treatment groups 2,3 via intraperitoneal injection respectively at a daily dose of 100 mg/kg and at a daily dose of 200 mg/kg. The rats in the pathological control group, the treatment groups 1,2,3, and the sham-operated groups 1,2,3 were subjected to the once-a-day administration until the end of the 14th day after the MPTP-HCl injection.
Starting on the 8th day after the MPTP-HCl injection, the rats in each group were subjected to the T-maze test as described in section C of this example. Starting on the 12th day after the MPTP-HCl injection, the rats in each group were subjected to the object recognition test as described in section D of this example. On the 15th day after the MPTP-HCl injection, the rats in the treatment group 1, the sham-operated group 1, and the pathological control group were subjected to the histopathological analysis as described in section E of this example.
In order to examine the effect of ceftriaxone on the recognition and/or memory ability of the rats with PDD, starting on the 12th day after the MPTP-HCl injection, all of the rats in each group were subjected to an object recognition test lasting a total of three days.
The object recognition test is described as follows. The object recognition test included four trials. The first and second trilas were conducted respectively on the 12th and 13th after the MPTP-HCl injection, and the third and fourth trials were conducted on the 14th day after the MPTP-HCl injection. Each of the four trials lasted 5 minutes. The time interval between the first and second trials, and that between the second and third trials were 1 day. The time interval between the third and fourth trials was 5 minutes. At the beginning of each of the four trials, the respective rat was placed in the open box and adjacent to the corner C4 thereof. During the first, second, and third trials, the objects A1, A2, A3 were disposed in the open box for being able to be explored by the respective rat (see FIG. 2(A)). During the fourth trial, the object A3 was replaced with the object B (see FIG. 2(B)). During the object recognition test, a video camera installed above the open box was used to monitor and record the behavior of the respective rat.

aged-impaired (AI) rats = conditions: daily dose of 200 mg/kg for 7 days; cited from earlier work

## CO/N=C(\C(=O)N[C@@H]1C(=O)N2C(C(=O)O)=C(CSc3nc(=O)c(=O)[nH]n3C)CS[C@H]12)c1csc(N)n1 [ceftriaxone, Ceftriaxone]
Rats with PDD [1]
  percentage of an area occupied by pyramidal neurons in the hippocampal CA1 area compared to the pathological control group: significantly higher
Rats with PDD [2]; Example 1 preventive group 1: 100 mg/kg daily i.p. from 5 days before MPTP-HCl, determined 14th day (FIG. 4)
  percentage of exploration time spent on object B in the fourth trial versus object A3 in the third trial: there is statistical significance
Rats with PDD [2]; Example 1 preventive group 2: 200 mg/kg daily i.p. from 5 days before MPTP-HCl, determined 14th day (FIG. 4)
  percentage of exploration time spent on object B in the fourth trial versus object A3 in the third trial: there is statistical significance
Rats with PDD [2]; Example 1 treatment group 1: 200 mg/kg daily i.p. after MPTP-HCl injection to 14th day, determined 14th day (FIG. 4)
  percentage of exploration time spent on object B in the fourth trial versus object A3 in the third trial: there is statistical significance
Rats with PDD [2]; Example 1 treatment group 2: 100 mg/kg daily i.p. starting 3rd day after MPTP-HCl, determined 14th day (FIG. 4)
  percentage of exploration time spent on object B in the fourth trial versus object A3 in the third trial: there is statistical significance
Rats with PDD [2]; Example 1 treatment group 3: 200 mg/kg daily i.p. starting 3rd day after MPTP-HCl, determined 14th day (FIG. 4)
  percentage of exploration time spent on object B in the fourth trial versus object A3 in the third trial: there is statistical significance
Rats with PDD [2]; Example 2 treatment group 1: 10 mg/kg daily i.p. after MPTP-HCl injection, determined 14th day (FIG. 8)
  percentage of exploration time spent on object B in the fourth trial versus object A3 in the third trial: there is statistical significance
Rats with PDD [2]; Example 2 treatment group 2: 50 mg/kg daily i.p. after MPTP-HCl injection, determined 14th day (FIG. 8)
  percentage of exploration time spent on object B in the fourth trial versus object A3 in the third trial: there is statistical significance
aged-impaired (AI) rats
  cognitive impairment: able to ameliorate cognitive impairment of the AI rats
